Data reported in patent publication US4661482A, “Use of pyrazolobenzoxazines in method of treating cerebral senescence and cerebral hypoxin” (Roussel Uclaf, priority 1985, dated 1987).

Assays:
[1] = Test of hypobare anoxemia (antianoxic activity); assay type: in vivo, male mice; conditions: head: orally, text: sub-cutaneously, 90 mm of Hg
Method: A--Test of hypobare anoxemia:
Male mice weighing 20-22 g, having fasted for 5 hours, were divided into groups of 10 animals and the test product was administered to the animals sub-cutaneously. Fifteen minutes after administration of the product, the animals were placed in a 2 liter dessicator in which the pressure was brought rapidly to 90 mm of Hg by a pump, and their time of survival was noted expressed in seconds. The increase of the survival time was recorded expressed as a percentage of the animals treated in relation to the control animals submitted to the same conditions.

[2] = Determination of hypotensive activity (carotidien arterial pressure, anesthetised rats); assay type: in vivo, male rats of WISTAR strain; conditions: vs initial control pressure
Method: The hypotensive activity was studied on male rats of WISTAR strain weighing about 300 g and anesthetised with nembutal (50 mg/kg by intraperitoneal route). The test product was administered intravenously into the jugular vein and the carotidien arterial pressure was measured before and after administration of the product. The following table reports the variations expressed in percentages of the arterial pressure after administration of the product in relation to the initial control arterial pressure.

dopaminergic receptors [3] = experiment: Rotation behavior after unilateral lesion of the nigra-striated bundle by 6-hydroxydopamine; assay type: in vivo, male rats; conditions: intraperitoneal; rats, groups of 8; starting dose
Method: Male rats of 220 g were injured in the nigra-striated dopaminergic bundle according to Ungerstedt's method [Ungerstedt, Acta physiol. Scand. (1971) Vol. 82, suppl. 367.69-93], modified by unilateral injection of 9.2 μg of 6-hydroxydopamine hydrochloride in solution in 4 μl of physiological solution containing 0.5 mg/ml of ascorbic acid. […] It therefore caused an agonistic action on the dopaminergic receptors at the central level.

Acute toxicity (LD0) = assay type: in vivo; conditions: oral, mice
Method: The lethal dose LD0 of the product of Example 3 was evaluated after oral administration to mice. LD0 is the maximum dose not causing any mortality in 8 days.

[4] = Determination of antihypertensive activity (spontaneously hypertensive rats); assay type: in vivo, spontaneously hypertensive male rats of the OKAMOTO strain; conditions: 0.5 mg/kg orally; one hour after administration
Method: The anithypertensive activity was studied on spontaneously hypertensive male rats of the OKAMOTO strain aged 20 weeks and weighing 300 to 320 g. The product was administered orally 48 hours after the positioning of an intracarotidien catheter to measure the arterial pressure. The pressure was measured before and 1 hour after administration of the product. For the product of Example 3, at a dose of 0.5 mg/kg the variation in percentage of arterial pressure after administration of the product in relation to the initial control pressure was -15% one hour after administration.

cerebral neuronal cells = experiment: enolase test (brain deprived of blood by ligature of the arteries); assay type: in vivo; conditions: Rattus norvegicus, ip; intraperitoneal; rats; read-out: dose to which the releasing of enolase is diminished
Method: Suffering cerebral neuronal cells release enolase and the test was carried out on rats whose brain had been totally deprived of blood by ligature of the arteries supplying the brain. The product of Example 3 administered intraperitoneally diminished the releasing of enolase to a dose of 0.1 mg/kg. Therefore it was considered that it protected the cerebral cells against ischemia.

dopaminergic receptors [5] = experiment: Stereotype behavior; assay type: in vivo, male rats; conditions: intraperitoneal; rats, groups of 5; observed every half hour over 5 hours; starting dose
Method: The tests were carried out on groups of 5 male rats weighing 150 to 180 g and each animal was placed individually in a barred cage (29×25×17 cm) containing a few wood shaving. The test product was administered intraperitoneally and the behavior of the animals was noted every half hour over 5 hours with the rating recommended by HALLIWELL et al. [Brit. J. Pharmacol. (1964), Vol. 23, p. 330-350]. The animal was asleep (0), it was awake but immobile (1), it turned in the cage (2), it sniffed the cover (3), it licked the walls (4), it touched the wood shavings or the bars of the cage with its teeth (5), it bit the shavings or the bars of the cage (6).
The total is determined of the scores per group taken at different times after administrationof the product studied.

## 4a RS (4aα,7α,8aβ)-7-methylthiomethyl-2,4,4a,5,6,7,8a,9-octahydro-5-propylpyrazolo-[3,4-g]-1,4-benzoxazine hydrochloride [Example 4]
[1]; 1 mg/kg
  Increase in survival time: +32%
[2]; 0.01 mg/kg intravenous
  % Variation of arterial pressure, 5 minutes after administration: -5%
  % Variation of arterial pressure, 30 minutes after administration: -5%
[2]; 0.1 mg/kg intravenous
  % Variation of arterial pressure, 5 minutes after administration: -21%
  % Variation of arterial pressure, 30 minutes after administration: -17%

## CCCN1CCO[C@@H]2Cc3n[nH]cc3C[C@H]21 (relative stereo) [Example 3, [4a SR trans]-5-propyl-2,4,4a,5,6,7,8a,9-octahydro-pyrazolo-[4,3-g]-1,4-benzoxazine]
Dopaminergic receptors [3]
  dose from which rotations contra-lateral to the injured side are caused: 0.05 mg/kg
[1]; 0.01 mg/kg
  Increase in survival time: +37%
[1]; 0.1 mg/kg
  Increase in survival time: +90%
Acute toxicity (LD0)
  LD0 (maximum dose not causing any mortality in 8 days): ≥ 200 mg/kg
[4]
  variation in percentage of arterial pressure in relation to the initial control pressure: -15%
Cerebral neuronal cells
  minimal effective dose: 0.1 mg/kg
Dopaminergic receptors [5]
  dose from which stereotype movements are caused: 0.1 mg/kg
[2]; 0.01 mg/kg intravenous
  % Variation of arterial pressure, 5 minutes after administration: -19%
  % Variation of arterial pressure, 30 minutes after administration: -8%
[2]; 0.1 mg/kg intravenous
  % Variation of arterial pressure, 5 minutes after administration: -26%
  % Variation of arterial pressure, 30 minutes after administration: -21%
